Test results as given in patent US20090105149A1, “Compounds comprising lpa” (ENKAM PHARMACEUTICALS A/S, priority 2003, published 2009).

Columns and labels:
[1] = test system: FGL-induced neurite outgrowth in CGN cultures; test: Effect of inhibitors of FGFR, MEK and PI3K on FGL-induced neurite outgrowth in CGN; assay type: cell-based, rat; details: for FGLd-induced neurite outgrowth in CGN in presence of inhibitor: FGLd-treated control = 100%
Experimental: CGN cultures were grown for 24 hours at a density of 10,000 cells/cm^2 on 8-well permanox slides in the presence of the FGL peptide and an inhibitor. PD98059 ([…]) was added at concentrations of 12.5, 25 and 50 μM simultaneously with 10 μg/ml FGLd; LY294002 (▴) was added at concentrations of 3.5, 7 and 10 μM simultaneously with 27 μg/ml FGLd. SU5402 (▪) was added in concentrations of 20, 40 and 80 μM simultaneously with 27 μg/ml FGLd. After the treatment cells were fixed and immunostained for GAP-43. Results from at least four independent experiments are shown as percentage ±SEM, with FGLd-treated control cultures set at 100%. The dashed line indicates the average neurite length in cultures without FGLd-treatment. *p<0.05, **p<0.01 when compared to the FGLd-treated controls.
(§1) Peptide solutions without or with inhibitors of various signal transduction pathways were added to a total volume of 300 μl/cm^2, and the slides were incubated at 37° C. After 24 hours, the neurons were fixed with 4% (v/v) formaldehyde for 20 minutes and thereafter immunostained using primary rabbit antibodies against GAP-43 and Alexa Fluor secondary goat anti-rabbit antibodies. Images of at least 200 neurons for each group in each individual experiment were obtained systematically by using computer assisted fluorescence microscopy as previously described (Rønn et al., 2000 op. cit.). Briefly, a Nikon Diaphot inverted microscope with a Nikon Plan 20× objective (Nikon, Tokyo, Japan) coupled to a video camera (Grundig Electronics, Germany) was used for recordings. The same software package as described above for the dopaminergic neurite outgrowth assay was used to process the recorded images.

[2] = test system: FGL-induced neurite outgrowth in CGN cultures; details: previously found; cited from earlier work
[3] = test system: FGL-induced survival of CGN; test: Effect of inhibitors of FGFR, MEK and PI3K on FGL-induced survival of CGN; assay type: cell-based, rat; details: 10 μg/ml FGLd, low KCl
Experimental: Thereafter the MEK inhibitor PD98059 ([…]), PI3K inhibitor LY294002 (▴) and FGFR inhibitor SU5402 (▪) were added at various concentrations. The addition of the inhibitors followed in all cases by the addition of 10 μg/ml FGLd. […] Results from at least four individual experiments are shown as percentage of the number of live neurons relative to the total number of neurons ±SEM, with control cultures treated with FGLd set at 100%.

[4] = test system: dissociated hippocampal neurons; test: OGD, metabolic activity (MTS) in dissociated hippocampal cell cultures; assay type: cell-based, rat; details: inhibitor 25 μM together with FGLd for 24 hours before OGD
Description: (§2) In the present study it was investigated the effect of the FGL peptide on synaptic plasticity, neuronal function and vulnerability following oxygen and glucose deprivation (OGD) in organotypic hippocampal neuronal slice cultures (OHSC) from 7-day-old Wistar rats according to method of Stoppini et al. (1991) Neurosci Methods. 37:173-82 and primary cultures of dissociated hippocampal neurons from 1-day-old rats according to method of Maar et al. (1997) J Neurosci Res. 47:163-72. Primary cell cultures were maintained for 11-12 days and OHSC for 12-14 days prior to adding FGLd.
(§3) The primary cell cultures and OHSC were exposed to OGD for 10 and 20 minutes. Following OGD, the cultures were again supplied with oxygen and glucose and analysed at 1, 4 or 24 hour time point after introduction of OGD exposure. FGLd (or the control peptide FGLc) was added 24 hr before, immediately, or 1 hr or 24 hr after OGD. When administered prior to OGD, FGLd was removed from the medium when introducing OGD. In some cases, the slice cultures were treated with FGLd only at 4 hr after OGD. In addition, the FGFR inhibitor, SU5402 (25 μM), was added together with FGLd in some of the set-ups.
(§4) In hippocampal neuronal cultures, FM 1-43 staining was used to evaluate pre-synaptic function (described above). Cell viability in both primary cell cultures and OHSC was measured using the […] [3-(4,5-dimethylthiazol-2-yl)-2,5-diphenyltetrazolium bromide] assay according to Malich et al, (1997) Toxicology. 124:179-92. In, addition, cell viability in OHSC was measured using propidium iodide (PI) staining according to Laake et al. (1999) Brain Res Brain Res Protoc. 4:173-84.

[5] = test system: dissociated hippocampal neurons; test: OGD, FM 1-43 release in dissociated hippocampal cell cultures; assay type: cell-based, rat; details: together with FGLd
Description: as §2, §3, §4

hippocampal neurons [6] = test: Neurite outgrowth, hippocampal neurons; assay type: cell-based, rat
Experimental: The cultures were subsequently immunostained for tyrosine hydroxylase. Hippocampal neurons and CGN were plated at a density of 10,000 cells/cm^2 on 8-well permanox chamber slides and incubated for 24 hours in the presence of various concentrations of FGLd. Subsequently the neurons were immunostained for GAP-43. Results from at least five independent experiments for each neuronal culture are shown as percentage ±SEM with the untreated controls set at 100%. *p<0.05, **p<0.01, ***p<0.001 when compared to the controls.
Results from at least four independent experiments are shown as percentage SEM with untreated controls set at 100%. **p<0.01 when compared to the controls.
as §1

hippocampal neurons [7] = test: FM 1-43 destaining (presynaptic vesicle turnover) in hippocampal neurons; assay type: cell-based, rat; details: added simultaneously with FGLd
Experimental: The values were compared using an unpaired t-test. *p=0.04 (1 h) and **p=0.0032 (48 h). FGLcontrol is a control peptide consisting the sequence […] (SEQ ID NO: 147).
The effects of FGLd on vesicle turnover was estimated in primary cultures of hippocampal neurons from embryonic rats (E19). The cultures were prepared as above. Following 13-16 days in vitro, FGLd was added to the cultures and incubated for 1, 24 or 48 hours. After 48 hours of incubation, the FGFR-inhibitor (SU 5402) was added simultaneously with FGLd to some of the cultures.
After treatment with FGLd the neurons were labeled with the fluorescent membrane probe FM 1-43 as described by Kiryushko et al (2003) J Biol. Chem. 278:12325-34. The rate of FM 1-43 release (destaining of cells) evoked by depolarisation with 90 mM potassium was then evaluated by a time-lapse image acquisition using the Radiance 2000 scanning system and a Nikon eclipse TE200 confocal microscopy.

[8] = test system: organotypic hippocampal neuronal slice cultures (OHSC); test: OGD, propidium iodide staining of OHSC; assay type: cell-based, rat; details: inhibitor together with FGLd
Description: as §2, §3, §4

rat FGFR1 (IIIC isoform) = molecular target: T1, rat FGFR1 (IIIC isoform) (Rattus norvegicus, UniProt Q04589); test: Phosphorylation of FGFR1 in transfected HEK293 cells; assay type: cell-based; details: 20 μg/ml; 20 min; HEK293 cells transfected with rat FGFR1
T1 construct: expressed in transfected cells; host or cells: HEK293 cells, transiently transfected with a pcDNA3.1(+) plasmid (Invitrogen)
Experimental: The EFL peptide is derived from the Fn 3, 2 module of NCAM and represents the E strand-loop-G strand part of the module. For the experiments the peptide was synthesised as described above. […] The peptide is also capable to bind and stimulate FGFR1 in cells expressing the receptor, wherein the peptide induces the receptor phosphorylation (at concentration 20 μg/ml by more then 300%). Phosphorylation of FGFR1 was studied using the following assay. […] Cells were grown for another 24 hrs in full medium, and then shifted to starvation media (DMEM 1965) overnight. FGFR transfected cells were stimulated for 20 min with the EFL monomer, lysed in 8M urea, 1 mM orthovanadate (in PBS) and purified from the lysate via the His-tag as follows: The lysate was loaded on Ni^2+/NTA-sepharose (Qiagen), washed with lysis buffer plus 10 mM imidazole, and the FGFR was eluted with lysis buffer plus 250 mM imidazole. The purified FGFR was analysed by immunoblotting using anti-pentahis (Qiagen) or anti-phosphotyrosine (PY20, Transduction Laboratories) antibodies. The bands were visualised by chemilumiscense and the band density was measured using a GeneGnome apparatus (SynGene).

[9] = test system: cerebellar granule neurons (CGN); test: Survival of CGN induced to undergo apoptosis by low KCl; details: individual monomer; low KCl
Experimental: Cerebella granular meurons (CGN) (e and f) from postnatal day 7 rats were grown at a density of 100,000 cells/cm^2 for 7 days on poly-L-lysine coated microtiter plates in the medium containing 40 mM KCl, then the medium was substituted to a 5 mM KCl containing medium supplemented with various concentrations of FGLd.
For the experiments cerebellar tissue was dissected in modified Krebs-Ringer solution kept on ice, and treated as described for the hippocampal neurons above. All cell cultures were incubated at 37° C. in a humidified atmosphere containing 5% CO2.
Primary cultures of CGN were plated at a density of 100,000 cells/cm^2 on poly-L-lysine coated 8-well permanox slides in Neurobasal-A medium (Gibco, BRL) supplemented with 2% (v/v) B27, 0.5% (v/v) glutamax, 100 U/ml penicillin, 100 μg/ml streptomycin and KCl, making the final concentration of KCl in the medium 40 mM. 24 hours after plating, cytosine-β-D-arabinofuranoside (Ara-C; Sigma-Aldrich) was added to a final concentration of 10 μM to avoid proliferation of glial cells, after which the neurons were allowed to differentiate for further six days at 37° C. Apoptotic cell death was induced by washing twice and changing the medium to Basal Medium Eagle (BME; Gibco BRL) supplemented with 1% (v/v) glutamine, 100 U/ml penicillin and 100 μg/ml streptomycin, 3.5 g D-glucose/l and 1% (v/v) sodium pyruvate (Gibco BRL) together with various concentrations of peptide. Thereby the concentration of potassium in the cultures was reduced to 5 mM KCl. Two days after induction of apoptosis, the cells were fixed with 4% formaldehyde and stained with Hoechst 33258 as described for the survival assay employing hippocampal neurons.

T1 sequence (Q04589 22-822): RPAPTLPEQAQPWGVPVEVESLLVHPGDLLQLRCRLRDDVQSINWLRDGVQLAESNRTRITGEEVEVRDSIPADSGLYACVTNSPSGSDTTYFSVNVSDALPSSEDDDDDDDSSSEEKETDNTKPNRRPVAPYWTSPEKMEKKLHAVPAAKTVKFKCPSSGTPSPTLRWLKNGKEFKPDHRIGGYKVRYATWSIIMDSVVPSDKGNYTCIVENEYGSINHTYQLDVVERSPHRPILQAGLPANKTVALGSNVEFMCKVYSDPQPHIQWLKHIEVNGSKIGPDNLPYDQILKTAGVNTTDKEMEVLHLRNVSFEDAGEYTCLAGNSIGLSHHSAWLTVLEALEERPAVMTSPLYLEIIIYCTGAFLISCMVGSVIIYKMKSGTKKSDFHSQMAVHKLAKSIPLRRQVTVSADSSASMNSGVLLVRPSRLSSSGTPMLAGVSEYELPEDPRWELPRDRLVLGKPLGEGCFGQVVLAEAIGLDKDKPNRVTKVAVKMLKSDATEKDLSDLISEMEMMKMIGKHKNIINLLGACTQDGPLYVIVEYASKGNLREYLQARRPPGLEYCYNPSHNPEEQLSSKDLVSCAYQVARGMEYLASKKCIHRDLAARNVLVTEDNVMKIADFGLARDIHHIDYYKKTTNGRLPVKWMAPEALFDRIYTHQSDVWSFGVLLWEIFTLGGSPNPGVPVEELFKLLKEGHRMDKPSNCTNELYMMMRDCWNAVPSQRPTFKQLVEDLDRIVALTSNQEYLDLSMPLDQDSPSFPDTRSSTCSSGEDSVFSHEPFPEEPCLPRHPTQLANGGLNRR

COc1cccc(-c2cc(=O)c3ccccc3o2)c1N [PD98059]
FGLd-induced neurite outgrowth in CGN in presence of inhibitor ([1]; inhibitor above 25 μM, 10 μg/ml FGLd): 75%
effect on basal neurite outgrowth in CGN [2]: not to affect the basal neurite outgrowth
inhibition of FGLd-induced survival of CGN ([3]; 12.5 μM inhibitor): inhibited cell survival induced by FGLd to the level of the control cultures

Cc1c[nH]c(/C=C2\C(=O)Nc3ccccc32)c1CCC(=O)O [SU5402]
metabolic activity after OGD, FGLd pretreatment with FGFR-inhibitor present [4]: did not diminish the OGD-induced reduction in metabolic activity
FGLd-induced neurite outgrowth in CGN in presence of inhibitor ([1]; 80 μM inhibitor, 27 μg/ml FGLd): 35%
effect on neurite outgrowth in control CGN cultures not treated with FGLd ([1]; data not shown): without significant effect on neurite outgrowth
effect of FGFR-inhibitor on FGLd action on OGD-induced decrease in FM 1-43 release [5]: abrogated the effect of FGLd
block of EFL-stimulated neuritogenic activity by inhibitor of FGFR1 (hippocampal neurons [6]; with EFL peptide): specifically blocked
effect of FGFR inhibitor on FGLd-increased FM 1-43 destaining (hippocampal neurons [7]): abolished the effect of FGLd
PI staining after OGD, pre-incubation with FGFR-inhibitor together with FGLd [8]: the PI staining was similar to that of OGD alone
inhibition of FGLd-induced survival of CGN ([3]; 20 μM inhibitor): significantly inhibited the survival response to FGLd
inhibition of FGLd-induced survival of CGN ([3]; 40 μM inhibitor): reduced the FGLd-induced survival to the survival rate of the untreated apoptosis-induced control neurons

NIEVWVEAENALGKKV (Interleukin-6 receptor beta chain [Swiss-Prot: Q00560]: FGFR binding motif) [EFL peptide]
neurite outgrowth of rat hippocampal neurons (hippocampal neurons [6]; individual monomer): strongly stimulate neurite outgrowth
FGFR1 phosphorylation induced by the peptide (rat FGFR1 (IIIC isoform)): > 300%
survival of rat cerebellar neurons [9]: stimulate survival
